Key:
SD rats = assay: Subchronic toxicity test in SD rats: clinical observation, body weight; assay type: in vivo; conditions: for body weight reduced compared with the control group: male rats, 120 mg/kg oral daily
Experimental: The rats that were judged suitable for the subchronic toxicity study were randomly divided into four groups (10 rats/sex/group). The rats received the test sample by gavage once daily for 28 days. HZ1006 was administered to the rats at doses of 120, 60, 20 and 0 (control) mg/kg, and the dosage volume was 5 mL/kg. Half of the 80 rats (half male and half female) were selected randomly according to body weight and dissected at d28. The remaining rats were dissected at d42.
Clinical symptoms and mortality were examined at least twice daily during the 42-day period, which included any changes in reaction to treatment, behavior, illness, food consumption, and body weight. Breathing rates, rectal temperature and pupil changes in the Beagle dogs were assessed once every 2 weeks.

Beagle dogs = assay: Subchronic toxicity test in Beagle dogs: hematology; assay type: in vivo
Experimental: HZ1006 was administered orally to dogs (four/sex/group) at doses of 80, 40, 20, 5 and 0 (control) mg/kg/day, and the dosage volume was 2 mL/kg. The dogs received test doses with the exact amounts on a weekly basis based on current body weights. […] The other dogs in the above groups were dissected on the planned days. For the other groups, half of the dogs were anatomized on d28 and the remaining half on d42.
The following indexes were examined for the dogs used in the study, twice during the pre-dosage period and on d14, d28 and d42. The following parameters were evaluated on d28 and d42 for the rats in the study:
Blood samples of the animals were collected in tubes containing ethylenediamine tetraacetic acid (EDTA) and tested using an ADVIA2120 Hematology Autoanalyzer (Bayer, Leverkusen, Germany). The following indexes were examined: hemoglobin concentration (Hb), red blood cell count (RBC),mean corpuscular volume (MCV), hematocrit (HCT), mean corpuscular hemoglobin concentration (MCHC), mean corpuscular hemoglobin (MCH), white blood cell count (WBC), platelet count (Plt), WBC differential counts [neutrophilcyte (Neu), eosinophilic granulocyte (Eos), basophilic leukocyte (Bas), lymphocyte (Lym), and monocyte (Mon)] and reticulocytes (Ret). The serum coagulation times of the blood samples (1.8-mL samples were mixed with 0.2 mL sodium citrate), including prothrombin time (PT), fibrinogen (FIB), activated partial thromboplastin time (APTT), and thrombin time (TT), were tested using an MC10 plus Blood Coagulation Analyzer from Shanghai San Jose Medical Products Co., Ltd. (Shanghai, China).

[1] = dog ♀6 (80 mg/kg/day oral), d0 (pre-dose)
[2] = dog ♀6 (80 mg/kg/day oral), d14 line (moribund, euthanized d8)
[3] = dog ♀28 (40 mg/kg/day oral), d0 (pre-dose)
[4] = dog ♀28 (40 mg/kg/day oral), d14 (died d16)
[5] = dogs, 5 mg/kg/day oral, d0 (pre-dose)
[6] = dogs, 5 mg/kg/day oral, d42 (recovery)
[7] = dogs, 20 mg/kg/day oral, d0 (pre-dose)
[8] = dogs, 20 mg/kg/day oral, d42 (recovery)
[9] = dogs, 40 mg/kg/day oral, d0 (pre-dose)
[10] = dogs, 40 mg/kg/day oral, d42 (recovery)
[11] = dogs, 80 mg/kg/day oral, d0 (pre-dose)
[12] = dogs, 80 mg/kg/day oral, d42 (recovery)

Compound: CCCCCCCNc1cc(/C=C/C(=O)NO)ccc1OCCN(CC)CC [HZ1006]
- body weight reduced compared with the control group (SD rats; week 4): 8%
- body weight reduced compared with the control group (SD rats; week 5): 15%
- survival (SD rats; rats, 20-120 mg/kg oral daily, 28 days + 14-day recovery): All rats survived until the scheduled necropsies
- APTT: Activated partial thromboplastin time (Beagle dogs; [1]): 13.9 s
- RET: Reticulocytes (Beagle dogs; [1]): 1.37%
- APTT: Activated partial thromboplastin time (Beagle dogs; [2]): 48.7 s
- RET: Reticulocytes (Beagle dogs; [2]): 0.14%
- APTT: Activated partial thromboplastin time (Beagle dogs; [3]): 12.4 s
- RET: Reticulocytes (Beagle dogs; [3]): 0.75%
- APTT: Activated partial thromboplastin time (Beagle dogs; [4]): 18.5 s
- RET: Reticulocytes (Beagle dogs; [4]): 0.04%
- APTT: Activated partial thromboplastin time (Beagle dogs; [5]): 13.6 ± 0.6 s
- FIB: Fibrinogen (Beagle dogs; [5]): 2.25 ± 0.37 g/L
- HCT: Hematocrit (Beagle dogs; [5]): 43.0 ± 2.6%
- HGB: Hemoglobin concentration (Beagle dogs; [5]): 139 ± 8 g/L
- MON: Monocyte (Beagle dogs; [5]): 4.4 ± 1.6%
- RBC: Red blood cell count (Beagle dogs; [5]): 6.31 ± 0.45 ×10^12/L
- RET: Reticulocytes (Beagle dogs; [5]): 0.77 ± 0.38%
- APTT: Activated partial thromboplastin time (Beagle dogs; dogs, 5 mg/kg/day oral, d14): 13.2 ± 0.6 s
- FIB: Fibrinogen (Beagle dogs; dogs, 5 mg/kg/day oral, d14): 2.53 ± 0.46 g/L
- HCT: Hematocrit (Beagle dogs; dogs, 5 mg/kg/day oral, d14): 41.8 ± 2.7%
- HGB: Hemoglobin concentration (Beagle dogs; dogs, 5 mg/kg/day oral, d14): 138 ± 9 g/L
- MON: Monocyte (Beagle dogs; dogs, 5 mg/kg/day oral, d14): 4.2 ± 1.0%
- RBC: Red blood cell count (Beagle dogs; dogs, 5 mg/kg/day oral, d14): 6.23 ± 0.46 ×10^12/L
- RET: Reticulocytes (Beagle dogs; dogs, 5 mg/kg/day oral, d14): 0.62 ± 0.29%
- APTT: Activated partial thromboplastin time (Beagle dogs; dogs, 5 mg/kg/day oral, d28): 13.1 ± 0.5 s
- FIB: Fibrinogen (Beagle dogs; dogs, 5 mg/kg/day oral, d28): 2.56 ± 0.40 g/L
- HCT: Hematocrit (Beagle dogs; dogs, 5 mg/kg/day oral, d28): 41.6 ± 2.4%
- HGB: Hemoglobin concentration (Beagle dogs; dogs, 5 mg/kg/day oral, d28): 135 ± 8 g/L
- MON: Monocyte (Beagle dogs; dogs, 5 mg/kg/day oral, d28): 4.4 ± 1.4%
- RBC: Red blood cell count (Beagle dogs; dogs, 5 mg/kg/day oral, d28): 6.22 ± 0.43 ×10^12/L
- RET: Reticulocytes (Beagle dogs; dogs, 5 mg/kg/day oral, d28): 0.49 ± 0.23%
- APTT: Activated partial thromboplastin time (Beagle dogs; [6]): 13.4 ± 0.4 s
- FIB: Fibrinogen (Beagle dogs; [6]): 2.89 ± 0.60 g/L
- HCT: Hematocrit (Beagle dogs; [6]): 41.0 ± 1.8%
- HGB: Hemoglobin concentration (Beagle dogs; [6]): 134 ± 7 g/L
- MON: Monocyte (Beagle dogs; [6]): 4.0 ± 1.2%
- RBC: Red blood cell count (Beagle dogs; [6]): 6.21 ± 0.36 ×10^12/L
- RET: Reticulocytes (Beagle dogs; [6]): 0.61 ± 0.22%
- APTT: Activated partial thromboplastin time (Beagle dogs; [7]): 12.4 ± 0.3 s
- FIB: Fibrinogen (Beagle dogs; [7]): 4.07 ± 0.94 g/L
- HCT: Hematocrit (Beagle dogs; [7]): 42.2 ± 3.9%
- HGB: Hemoglobin concentration (Beagle dogs; [7]): 142 ± 13 g/L
- MON: Monocyte (Beagle dogs; [7]): 4.7 ± 1.3%
- RBC: Red blood cell count (Beagle dogs; [7]): 6.20 ± 0.58 ×10^12/L
- RET: Reticulocytes (Beagle dogs; [7]): 0.96 ± 0.24%
- APTT: Activated partial thromboplastin time (Beagle dogs; dogs, 20 mg/kg/day oral, d14): 12.5 ± 0.5 s
- FIB: Fibrinogen (Beagle dogs; dogs, 20 mg/kg/day oral, d14): 4.30 ± 1.17 g/L
- HCT: Hematocrit (Beagle dogs; dogs, 20 mg/kg/day oral, d14): 36.9 ± 2.2 %
- HGB: Hemoglobin concentration (Beagle dogs; dogs, 20 mg/kg/day oral, d14): 118 ± 7 g/L
- MON: Monocyte (Beagle dogs; dogs, 20 mg/kg/day oral, d14): 8.0 ± 2.3 %
- RBC: Red blood cell count (Beagle dogs; dogs, 20 mg/kg/day oral, d14): 5.57 ± 0.30 ×10^12/L
- RET: Reticulocytes (Beagle dogs; dogs, 20 mg/kg/day oral, d14): 0.53 ± 0.23 %
- APTT: Activated partial thromboplastin time (Beagle dogs; dogs, 20 mg/kg/day oral, d28): 12.0 ± 0.7 s
- FIB: Fibrinogen (Beagle dogs; dogs, 20 mg/kg/day oral, d28): 4.48 ± 1.68 g/L
- HCT: Hematocrit (Beagle dogs; dogs, 20 mg/kg/day oral, d28): 36.6 ± 1.0 %
- HGB: Hemoglobin concentration (Beagle dogs; dogs, 20 mg/kg/day oral, d28): 118 ± 3 g/L
- MON: Monocyte (Beagle dogs; dogs, 20 mg/kg/day oral, d28): 9.0 ± 1.4 %
- RBC: Red blood cell count (Beagle dogs; dogs, 20 mg/kg/day oral, d28): 5.57 ± 0.16 ×10^12/L
- RET: Reticulocytes (Beagle dogs; dogs, 20 mg/kg/day oral, d28): 0.54 ± 0.19 %
- APTT: Activated partial thromboplastin time (Beagle dogs; [8]): 12.8 ± 0.3 s
- FIB: Fibrinogen (Beagle dogs; [8]): 4.26 ± 0.49 g/L
- HCT: Hematocrit (Beagle dogs; [8]): 39.4 ± 1.7%
- HGB: Hemoglobin concentration (Beagle dogs; [8]): 128 ± 8 g/L
- MON: Monocyte (Beagle dogs; [8]): 5.8 ± 1.0%
- RBC: Red blood cell count (Beagle dogs; [8]): 5.96 ± 0.13 ×10^12/L
- RET: Reticulocytes (Beagle dogs; [8]): 0.83 ± 0.23%
- APTT: Activated partial thromboplastin time (Beagle dogs; [9]): 12.8 ± 0.5 s
- FIB: Fibrinogen (Beagle dogs; [9]): 4.84 ± 0.89 g/L
- HCT: Hematocrit (Beagle dogs; [9]): 41.7 ± 2.0%
- HGB: Hemoglobin concentration (Beagle dogs; [9]): 139 ± 6 g/L
- MON: Monocyte (Beagle dogs; [9]): 6.0 ± 1.8%
- RBC: Red blood cell count (Beagle dogs; [9]): 6.01 ± 0.31 ×10^12/L
- RET: Reticulocytes (Beagle dogs; [9]): 0.86 ± 0.17%
- APTT: Activated partial thromboplastin time (Beagle dogs; dogs, 40 mg/kg/day oral, d14): 16.8 ± 0.7 s
- FIB: Fibrinogen (Beagle dogs; dogs, 40 mg/kg/day oral, d14): 7.19 ± 1.58 g/L
- HCT: Hematocrit (Beagle dogs; dogs, 40 mg/kg/day oral, d14): 35.5 ± 2.6 %
- HGB: Hemoglobin concentration (Beagle dogs; dogs, 40 mg/kg/day oral, d14): 114 ± 8 g/L
- MON: Monocyte (Beagle dogs; dogs, 40 mg/kg/day oral, d14): 9.2 ± 5.3%
- RBC: Red blood cell count (Beagle dogs; dogs, 40 mg/kg/day oral, d14): 5.6 ± 0.36 ×10^12/L
- RET: Reticulocytes (Beagle dogs; dogs, 40 mg/kg/day oral, d14): 0.13 ± 0.11 %
- APTT: Activated partial thromboplastin time (Beagle dogs; dogs, 40 mg/kg/day oral, d28): 12.8 ± 0.8 s
- FIB: Fibrinogen (Beagle dogs; dogs, 40 mg/kg/day oral, d28): 4.93 ± 1.22 g/L
- HCT: Hematocrit (Beagle dogs; dogs, 40 mg/kg/day oral, d28): 32.8 ± 2.8 %
- HGB: Hemoglobin concentration (Beagle dogs; dogs, 40 mg/kg/day oral, d28): 105 ± 9 g/L
- MON: Monocyte (Beagle dogs; dogs, 40 mg/kg/day oral, d28): 11.6 ± 4.5 %
- RBC: Red blood cell count (Beagle dogs; dogs, 40 mg/kg/day oral, d28): 5.00 ± 0.47 ×10^12/L
- RET: Reticulocytes (Beagle dogs; dogs, 40 mg/kg/day oral, d28): 0.51 ± 0.22 %
- APTT: Activated partial thromboplastin time (Beagle dogs; [10]): 12.9 ± 0.8 s
- FIB: Fibrinogen (Beagle dogs; [10]): 4.22 ± 1.25 g/L
- HCT: Hematocrit (Beagle dogs; [10]): 39.7 ± 0.1%
- HGB: Hemoglobin concentration (Beagle dogs; [10]): 124 ± 1 g/L
- MON: Monocyte (Beagle dogs; [10]): 6.4 ± 3.5%
- RBC: Red blood cell count (Beagle dogs; [10]): 5.96 ± 0.06 ×10^12/L
- RET: Reticulocytes (Beagle dogs; [10]): 0.89 ± 0.65%
- APTT: Activated partial thromboplastin time (Beagle dogs; [11]): 13.4 ± 0.6 s
- FIB: Fibrinogen (Beagle dogs; [11]): 3.80 ± 0.84 g/L
- HCT: Hematocrit (Beagle dogs; [11]): 40.3 ± 3.0%
- HGB: Hemoglobin concentration (Beagle dogs; [11]): 134 ± 10 g/L
- MON: Monocyte (Beagle dogs; [11]): 5.0 ± 0.8%
- RBC: Red blood cell count (Beagle dogs; [11]): 5.92 ± 0.42 ×10^12/L
- RET: Reticulocytes (Beagle dogs; [11]): 0.92 ± 0.27%
- APTT: Activated partial thromboplastin time (Beagle dogs; dogs, 80 mg/kg/day oral, d14): 16.2 ± 3.0 s
- FIB: Fibrinogen (Beagle dogs; dogs, 80 mg/kg/day oral, d14): 7.06 ± 2.14 g/L
- HCT: Hematocrit (Beagle dogs; dogs, 80 mg/kg/day oral, d14): 33.4 ± 2.6 %
- HGB: Hemoglobin concentration (Beagle dogs; dogs, 80 mg/kg/day oral, d14): 107 ± 8 g/L
- MON: Monocyte (Beagle dogs; dogs, 80 mg/kg/day oral, d14): 19.7 ± 19.7 %
- RBC: Red blood cell count (Beagle dogs; dogs, 80 mg/kg/day oral, d14): 5.09 ± 0.42 ^##^,* ×10^12/L
- RET: Reticulocytes (Beagle dogs; dogs, 80 mg/kg/day oral, d14): 0.08 ± 0.12 %
- APTT: Activated partial thromboplastin time (Beagle dogs; dogs, 80 mg/kg/day oral, d28): 12.5 ± 0.5 s
- FIB: Fibrinogen (Beagle dogs; dogs, 80 mg/kg/day oral, d28): 6.69 ± 0.62 g/L
- HCT: Hematocrit (Beagle dogs; dogs, 80 mg/kg/day oral, d28): 26.9 ± 1.7 %
- HGB: Hemoglobin concentration (Beagle dogs; dogs, 80 mg/kg/day oral, d28): 86 ± 5 g/L
- MON: Monocyte (Beagle dogs; dogs, 80 mg/kg/day oral, d28): 12.5 ± 2.9 %
- RBC: Red blood cell count (Beagle dogs; dogs, 80 mg/kg/day oral, d28): 4.17 ± 0.33 ×10^12/L
- RET: Reticulocytes (Beagle dogs; dogs, 80 mg/kg/day oral, d28): 0.21 ± 0.16 %
- APTT: Activated partial thromboplastin time (Beagle dogs; [12]): 12.7 ± 0.9 s
- FIB: Fibrinogen (Beagle dogs; [12]): 3.72 ± 2.00 g/L
- HCT: Hematocrit (Beagle dogs; [12]): 37.5 ± 3.1%
- HGB: Hemoglobin concentration (Beagle dogs; [12]): 126 ± 4 g/L
- MON: Monocyte (Beagle dogs; [12]): 5.0 ± 1.9%
- RBC: Red blood cell count (Beagle dogs; [12]): 5.71 ± 0.50 ×10^12/L
- RET: Reticulocytes (Beagle dogs; [12]): 0.88 ± 0.27%

Reference: publication PMC5201331, “Subchronic Toxicities of HZ1006, a Hydroxamate-Based Histone Deacetylase Inhibitor, in Beagle Dogs and Sprague-Dawley Rats” (International Journal of Environmental Research and Public …, 2016)
